Measured values taken from ChEMBL document CHEMBL3576801, “Praeruptorin A inhibits in vitro migration of preosteoclasts and in vivo bone erosion, possibly due to its potential to target calmodulin” (J Nat Prod, 2015).
Activity calls are given as the source filed them. The calls are words filed in the database; no cut-off is given here.

Experiments:
[1] = molecular target: T1, Tumor necrosis factor ligand superfamily member 11 (Mus musculus) (UniProt O35235); assay: Inhibition of RANKL-induced fusion of preosteoclast derived from ICR mouse bone marrow-derived macrophages assessed as formation of tartrate-resistant acid phosphatase-positive multinucleated osteoclast preincubated for 30 mins with M-CSF followed by RANKL induction measured after 1 day by TRAP staining; type: functional, cell-based
T1 sequence (whole entry): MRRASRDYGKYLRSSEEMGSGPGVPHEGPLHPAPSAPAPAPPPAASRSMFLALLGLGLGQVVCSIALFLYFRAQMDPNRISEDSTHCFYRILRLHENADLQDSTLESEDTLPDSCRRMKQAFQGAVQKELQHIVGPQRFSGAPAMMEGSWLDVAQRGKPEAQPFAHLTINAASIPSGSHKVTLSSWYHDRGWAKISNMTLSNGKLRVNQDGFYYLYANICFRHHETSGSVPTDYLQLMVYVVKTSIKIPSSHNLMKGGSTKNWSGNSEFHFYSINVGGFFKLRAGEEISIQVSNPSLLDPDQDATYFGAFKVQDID

[2] = Cytotoxicity against preosteoclast derived from ICR mouse bone marrow-derived macrophages assessed as cell viability at 0.1 to 10 uM after 1 day by CCK-8 assay; type: cell-based; conditions: osteoclast, 24 h
[3] = molecular target: T1, Tumor necrosis factor ligand superfamily member 11 (Mus musculus); assay: Inhibition of RANKL-induced migration of preosteoclast derived from ICR mouse bone marrow-derived macrophages after 8 hrs by Boyden chamber assay; type: functional, cell-based; conditions: Osteoclast
[4] = molecular target: Calmodulin-1 (Mus musculus) (UniProt P0DP26); assay: Binding affinity to Ca2+/calmodulin complex in preosteoclast derived from ICR mouse bone marrow-derived macrophages assessed as inhibition of RANKL-induced NFATc1 nuclear translocation at 10 uM preincubated for 30 mins with M-CSF followed by RANKL induction measured after 3 to 7 hrs by Western blot analysis
[5] = molecular target: Calmodulin-1 (Mus musculus) (UniProt P0DP26); assay: (§1) Binding affinity to Ca2+/calmodulin complex in preosteoclast derived from ICR mouse bone marrow-derived macrophages assessed as inhibition of RANKL-induced NFATc1 mRNA expression at 10 uM preincubated for 30 mins with M-CSF followed by RANKL induction measured after 3 hrs by real-time PCR analysis
[6] = molecular target: Calmodulin-1 (Mus musculus) (UniProt P0DP26); assay: Binding affinity to Ca2+/calmodulin complex in preosteoclast derived from ICR mouse bone marrow-derived macrophages assessed as inhibition of RANKL-induced c-Fos mRNA expression at 10 uM preincubated for 30 mins with M-CSF followed by RANKL induction measured after 3 hrs by real-time PCR analysis
[7] = molecular target: Calmodulin-1 (Mus musculus) (UniProt P0DP26); assay: Binding affinity to Ca2+/calmodulin complex in preosteoclast derived from ICR mouse bone marrow-derived macrophages assessed as inhibition of RANKL-induced ATP6v0d2 mRNA expression at 10 uM preincubated for 30 mins with M-CSF followed by RANKL induction measured after 3 hrs by real-time PCR analysis
[8] = molecular target: Calmodulin-1 (Mus musculus) (UniProt P0DP26); assay: Binding affinity to Ca2+/calmodulin complex in preosteoclast derived from ICR mouse bone marrow-derived macrophages assessed as inhibition of RANKL-induced DC-STAMP mRNA expression at 10 uM preincubated for 30 mins with M-CSF followed by RANKL induction measured after 3 hrs by real-time PCR analysis
[9] = molecular target: Calmodulin-1 (Mus musculus) (UniProt P0DP26); assay: as §1, with “alphaV-integrin” for “NFATc1”
[10] = molecular target: Calmodulin-1 (Mus musculus) (UniProt P0DP26); assay: as §1, with “cathepsin K” for “NFATc1”
Calmodulin (Bos taurus) [11] = molecular target: Calmodulin (Bos taurus) (UniProt P62157); assay: Binding affinity to bovine brain calmodulin at 0.1 mM after 60 mins by gel mobility shift assay in presence of CaCl2
Calmodulin (Bos taurus) [12] = molecular target: Calmodulin (Bos taurus) (UniProt P62157); assay: Binding affinity to bovine brain calmodulin at 0.1 mM after 60 mins by gel mobility shift assay in presence of EGTA
[13] = molecular target: Calmodulin-1 (Mus musculus) (UniProt P0DP26); assay: Binding affinity to Ca2+/calmodulin complex in preosteoclast derived from ICR mouse bone marrow-derived macrophages assessed as inhibition of CaMK-4 phosphorylation at T196 preincubated for 30 mins with M-CSF followed by RANKL induction measured after 30 mins by Western blot analysis
[14] = molecular target: Calmodulin-1 (Mus musculus) (UniProt P0DP26); assay: Binding affinity to Ca2+/calmodulin complex in preosteoclast derived from ICR mouse bone marrow-derived macrophages assessed as inhibition of CREB phosphorylation at S133 preincubated for 30 mins with M-CSF followed by RANKL induction measured after 30 mins by Western blot analysis
[15] = molecular target: Calmodulin-1 (Mus musculus) (UniProt P0DP26); assay: Binding affinity to Ca2+/calmodulin complex in preosteoclast derived from ICR mouse bone marrow-derived macrophages assessed as inhibition of NFATc1 nuclear translocation at 0.3 to 10 uM preincubated for 30 mins with M-CSF followed by RANKL induction measured after 30 mins by Western blot analysis
[16] = molecular target: Calmodulin-1 (Homo sapiens) (UniProt P0DP23); assay: Binding affinity to recombinant human calmodulin assessed as inhibition of calcineurin phosphatase activity using R2 phosphopeptide substrate at 3 to 10 uM after 30 mins by malachite green staining-based colorimetric analysis in presence of CaCl2
Mus musculus [17] = assay: Antiresorptive activity in ICR mouse assessed as inhibition of LPS-induced cancellous bone loss in distal metaphysis at 2 to 4 mg/kg, ip administered for 8 days with LPS challenge on day 2 and 5 measured on day 9 by microCT analysis; type: functional, organism-based
Mus musculus [18] = assay: Antiresorptive activity in ICR mouse assessed as reduction of LPS-induced trabecular bone loss at 2 to 4 mg/kg, ip administered for 8 days with LPS challenge on day 2 and 5 measured on day 9 by hematoxylin and eosin staining; type: functional, organism-based; conditions: Trabecula
Mus musculus [19] = assay: Antiresorptive activity in ICR mouse assessed as inhibition of LPS-induced changes in bone volume/tissue volume at 2 to 4 mg/kg, ip administered for 8 days with LPS challenge on day 2 and 5 measured on day 9 by histomorphometric analysis; type: functional, organism-based
Mus musculus [20] = assay: Antiresorptive activity in ICR mouse assessed as inhibition of LPS-induced changes in trabecular thickness at 2 to 4 mg/kg, ip administered for 8 days with LPS challenge on day 2 and 5 measured on day 9 by histomorphometric analysis; type: functional, organism-based; conditions: Trabecula
Mus musculus [21] = assay: Antiresorptive activity in ICR mouse assessed as inhibition of LPS-induced changes in trabecular number at 2 to 4 mg/kg, ip administered for 8 days with LPS challenge on day 2 and 5 measured on day 9 by histomorphometric analysis; type: functional, organism-based; conditions: Trabecula
Mus musculus [22] = assay: Antiresorptive activity in ICR mouse assessed as inhibition of LPS-induced changes in bone surface/tissue volume at 2 to 4 mg/kg, ip administered for 8 days with LPS challenge on day 2 and 5 measured on day 9 by histomorphometric analysis; type: functional, organism-based
Mus musculus [23] = assay: Antiresorptive activity in ICR mouse assessed as inhibition of LPS-induced changes in trabecular separation at 2 to 4 mg/kg, ip administered for 8 days with LPS challenge on day 2 and 5 measured on day 9 by histomorphometric analysis; type: functional, organism-based; conditions: Trabecula
Mus musculus [24] = assay: Antiresorptive activity in ICR mouse assessed as inhibition of LPS-induced changes in bone mineral density at 2 to 4 mg/kg, ip administered for 8 days with LPS challenge on day 2 and 5 measured on day 9 by histomorphometric analysis; type: functional, organism-based

C/C=C(/C)C(=O)O[C@@H]1[C@@H](OC(C)=O)c2c(ccc3ccc(=O)oc23)OC1(C)C
inhibition [1]: Dose-dependent effect
Activity [2]: Non-toxic
inhibition [3]: Dose-dependent effect
inhibition [4]: Active
inhibition [5]: Active
inhibition [6]: Active
inhibition [7]: Active
inhibition [8]: Active
inhibition [9]: Active
inhibition [10]: Active
Activity (Calmodulin (Bos taurus) [11]): Active
Activity (Calmodulin (Bos taurus) [12]): inactive
inhibition [13]: Dose-dependent effect
inhibition [14]: Dose-dependent effect
inhibition [15]: Active
inhibition [16]: Active
inhibition (Mus musculus [17]): Active
Activity (Mus musculus [18]): Active
inhibition (Mus musculus [19]): Active
inhibition (Mus musculus [20]): Active
inhibition (Mus musculus [21]): Active
inhibition (Mus musculus [22]): Active
inhibition (Mus musculus [23]): Active
inhibition (Mus musculus [24]): Active
